Results: patent US10913932B2, “Maturation of mammalian hepatocytes” (Takara Bio Europe AB, priority 2015, dated 2021)

Columns and labels:
[1] = system: OATP1B1; assay: OATP1B1 mRNA expression levels; format: cell-based, human; conditions: protocol B plus compound compared to protocol A; day 36; protocol B alone also increases; FIG. 2 F
Experimental: Following the basic protocol B, ChiPSC4-derived hepatocytes cultured on a Collagen I-Fibronectin-based coating were treated with 0.5 μM 10Z-Heptadecenoic acid, 0.5 μM Arachidonic acid, 0.5 μM Calcitriol, 5 μM CGP 52608, 0.2 μM Cholecalciferol, 5 μM PP1, 0.5 μM D-erythro-Sphingosine, 0.2 μM 13 cis-RA, 0.5 μM L-erythro MAPP, 0.5 μM PAF C16, 0.5 μM C16 Ceramide, or different combinations of these compounds from day 21 of the differentiation protocol and onwards (FIG. 2).

[2] = system: ChiPSC4-derived hepatocytes; assay: CYP activity assay, Example 4, basic protocol B; conditions: single compounds 0.2-5 μM or combinations, from day 21 onwards, Collagen I-Fibronectin-based coating, day 29, FIG. 2 A-D
Experimental: (§1) On day 29 and 36 of the differentiation protocol, the cell cultures are subjected to a CYP activity assay according to the following protocol: Cells are washed twice with warm Williams's medium E w/o phenol red (+0.1% PEST). Then CYP activity assay, consisting of warm Williams medium E w/o phenol red (+0.1% PEST), 2 mM L-Glutamine, 25 mM HEPES, 10 μM Phenacetin (model substrate for CYP1A), 10 μM Bupropion (model substrate for 2B6), 10 μM Diclofenac (model substrate for CYP2C9), 10 μM Bufuralol (model substrate for 2D6), and 5 μM Midazolam (model substrate for CYP3A), is added to the cells (e.g. 110 μl/cm^2) and incubated for 16 hr at 37° C. Then 100 μl of the supernatant is transferred into a 96 well plate which is sealed with a tight seal tape and stored at −80° C. until LC/MS-analysis of metabolite formation: Acetaminophen (Paracetamol) for CYP1A, OH-Bupropion for CYP2B6, OH-Diclofenac for CYP2C9, OH-Bufuralol for CYP2D6, and OH-Midazolam for CYP3A. […]
On day 29 of the differentiation protocol, the cell cultures are subjected to a CYP activity assay according to the protocol described in Example 3. In some experiments, 50 μM Mephenytoin (model substrate for 2C19) was included additionally to the substrates mentioned above and then the formation of the metabolite OH-Mephenytoin was measured by LC/MS in order to determine CYP2C19 activity.

[3] = system: hiPS cell-derived hepatocytes; assay: CYP activity assay (LC/MS metabolite formation), Example 3, basic protocol A; conditions: single compounds, 0.2-50 μM, from day 21 onwards, Fibronectin-based coating, day 29 and 36, FIG. 1
Experimental: Following the basic protocol A, hiPS cell derived hepatocytes cultured on a Fibronectin-based coating were treated with 0.5 or 5 μM 10Z-Heptadecenoic acid, 0.5 or 5 μM Arachidonic acid, 5 μM Calcifediol, 5 μM Calcitriol, 0.2 or 0.5 μM Cholecalciferol, 5 or 50 μM CGP 52608, 0.5 or 5 μM Docosahexaenoic acid, 0.5, 1.25, 2.5, 5, or 10 μM PP1, 0.5 or 5 μM PP2, 0.5 or 5 μM D-erythro-Sphingosine, or 0.5 or 5 μM Tetradecanoic acid from day 21 of the differentiation protocol and onwards (FIG. 1).
as §1, with “C.” for “C. Then 100 μl of the supernatant is transferred into a 96 well plate which is sealed with a tight seal tape and stored at −80° C. until LC/MS-analysis of metabolite formation: Acetaminophen (Paracetamol) for CYP1A, OH-Bupropion for CYP2B6, OH-Diclofenac for CYP2C9, OH-Bufuralol for CYP2D6, and OH-Midazolam for CYP3A.”

SMILES	OATP1B1 mRNA levels [1]	CYP activity levels [2]	CYP activity levels [3]
CCCCCC/C=C\CCCCCCCCC(=O)O [10Z-Heptadecenoic acid, 10Z-heptadecenoic acid]	increase		
CC1=C(/C=C/C(C)=C/C=C/C(C)=C\C(=O)O)C(C)(C)CCC1 [13 cis-RA, 13-cis-retinoic acid]		increase CYP activity levels	
C=C1CC[C@H](O)C/C1=C/C=C1\CCC[C@]2(C)[C@@H]([C@H](C)CCCC(C)C)CC[C@@H]12 [Cholecalciferol, cholecalciferol]		increase CYP activity levels	increase CYP activity levels
CC(C)(C)n1nc(-c2ccc(Cl)cc2)c2c(N)ncnc21 [PP2, 3-(4-chlorophenyl) 1-(1,1-dimethylethyl)-1H-pyrazolo[3,4-d]pyrimidin-4-amine]			increase CYP activity levels
